{
  "source": "patent US20100112012A1",
  "about": "“MODULATION OF IMMUNE RESPONSES” (CLEVELAND CLINIC FOUNDATION, priority 2005, published 2010)",
  "key": {"[1]": {"system": "contact hypersensitivity (CHS) response", "assay": "Hapten sensitization and elicitation of contact hypersensitivity", "assay_type": "in vivo, BALB/c mice", "conditions": "24 hours after challenge", "experimental": "For sensitization to DNFB, mice were painted on days 0 and +1 with 25 ml of 0.25% 2,4-dinitrofluorobenzene (DNFB) (Sigma Chemical, Co.) on the shaved abdomen and 5 ml on each footpad. On day +5 sensitized and, as a negative control, unsensitized mice were challenged with 10 ml of 0.2% DNFB on both sides of each ear. Ear thickness was measured in a blinded manner at 24 h intervals after challenge using an engineer's micrometer (Mitutoyo, Elk Grove Village, Ill.) and expressed in units of 10^−4 inches. The magnitude of ear swelling responses is presented in FIG. 12 as the mean increase of each group of 4 sensitized or non-sensitized mice (i.e. […]) ±SEM over the thickness measured just prior to hapten challenge on day +5 post-sensitization. […] Control mice received injections with an equal volume of PBS."}, "[2]": {"system": "MHC-mismatched heart grafts", "conditions": "quinacrine on days −2, −1, +5, +14, +16; for survival of heart allografts: A/J donors to C57BL/6", "quoted_text": "Heterotopic cardiac transplants were performed using microsurgical techniques. Briefly, donor hearts were harvested and placed in chilled Ringer's solution while the recipient mice were prepared. […] Upon completion of the anastomoses and organ reperfusion, the heart grafts resumed spontaneous contraction. The strength and quality of cardiac graft impulses were monitored each day by palpation of the abdomen. Rejection of cardiac grafts was considered complete by cessation of impulse and was confirmed visually for each graft by laparotomy."}, "ACHN cells": {"system": "ACHN cells", "assay": "Experimental chemotherapy of tumor xenografts", "assay_type": "in vivo, nude mice", "conditions": "5-fluorouracil 35 mg/kg", "experimental": "NIH Swiss athymic nude, male mice, 5-6 weeks old, were purchased from Harlan. 5×10^6 tumor cells were inoculated into the flanks of mice in 100 μL of PBS. When tumors reached 5 mm in diameter, intraperitoneal injections of drugs were started in 100 μL of a solution of 50% DMSO in PBS (except for quinacrine, which was dissolved in PBS). As vehicle, 50% DMSO solution in PBS was used. Tumor size was measured in three dimensions every other day."}, "p53": {"system": "p53", "assay": "Phosphorylation status of p53 (Western analysis)", "assay_type": "cell-based, human", "conditions": "RCC45 cells, 9AA 5 μM, 16 h", "experimental": "Cells were lysed in RIPA buffer (25 mM Tris HCl, pH 7.2, 125 mM NaCl, 1% NP40, 1% sodium deoxycholate, 1 mM EDTA) containing 1 mM PMSF (Sigma), 10 ug/ml of aprotinin (Sigma) and 10 ug/ml of leupeptin (Sigma). Protein concentrations were determined with the BioRad Dc protein assay kit. Equal protein amounts were run on gradient 4-20% precast gels (Novex) and blotted onto PVDF membranes (Amersham). The following antibodies were used: anti-p53—monoclonal mouse DO1 (Santa-Cruz), anti-p21—monoclonal mouse F-5 (Santa-Cruz), anti-mdm2—monoclonal mouse SMP14 (Santa-Cruz), anti-p65—(C20, Santa Cruz), anti-phospho-p65—(ser536, Cell Signaling), anti-IκBa—(C21, Santa Cruz), anti-p50—(NLS, Santa Cruz), anti-IKK1 (Cell Signaling), anti-γH2X (Cell Signaling), anti-actin (Santa Cruz). p53 phosphorylation status was analyzed using the phospho-p53 sampler kit from Cell Signaling according to the manufacturer's recommendations. HRP-conjugated secondary antibodies were purchased from Santa Cruz. Quantitation of the data was performed using Quantity One software from BioRad."}},
  "note": "Entries after “also recorded” stand apart in the source; their conditions may differ. Where two headings read alike, the source gives them in different places.",
  "data": [
    {"molecule": "CCN(CC)CCCC(C)Nc1c2ccc(Cl)cc2nc2ccc(OC)cc12", "note": "(centres unmarked) [QC, quinacrine]", "values": [
      {"measurement": "CHS/ear swelling response", "setting": "[1]; quinacrine 80 mg/kg i.p. on days −2 and −1 (just prior to DNFB sensitization)", "result": "inhibits the priming of antigen-specific T cells (FIG. 13) and the magnitude and duration of the allergic response elicited; also recorded: decreased the CHS/ear swelling response to near the level observed following challenge of non-immune, naïve mice"},
      {"measurement": "CHS/ear swelling response", "setting": "[1]; quinacrine on days 0 and +1 (during DNFB sensitization)", "result": "increased the magnitude and persistence of the antigen-specific T cell response; also recorded: increased the CHS response to the challenge"},
      {"measurement": "survival of heart allografts", "setting": "[2]; listed as Quinacrine", "result": "extended the survival of all grafts"},
      {"measurement": "survival of heart allografts", "setting": "[2]; listed as quinacrine", "result": "significant prolongation of allograft survival"},
      {"measurement": "rejection of heart allografts", "setting": "[2]; groups of 5", "result": "absence of rejection in one of the allografts"},
      {"measurement": "growth of tumor xenografts", "setting": "ACHN cells; ACHN cells subcutaneous in nude mice, QC 50 mg/kg intraperitoneal", "result": "inhibited the growth of tumor xenografts; also recorded: same antitumor effect as 5-fluorouracil"},
      {"measurement": "weight loss", "setting": "ACHN cells; ACHN xenograft nude mice, QC 50 mg/kg", "result": "without the significant weight loss"},
      {"measurement": "phosphorylation of p53", "setting": "p53", "result": "did not induce the phosphorylation of p53"}
    ]}
  ]
}
